Assay results reported in the supplement of paper PMC10307832.

Columns and labels:
Assay in all cases: relative viability (nuclei count vs DMSO), 5 days (fraction); higher = more cells survive
SK-LU-1 = test system: SK-LU-1
Outline: (§1)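 Five library-drug doses in √10 steps were combined with a fixed anchor-drug dose, or a single drug was given alone, by pin tool to lung cancer cell lines in 1536-well plates the day after seeding. Nuclei were stained and counted after 5 days. Relative viability is the nuclei count in treated wells over that in vehicle wells, taken as the median of duplicate plates.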

NCI-H1793 = test system: NCI-H1793
Outline: as §1

CAL-12T = test system: CAL-12T
Outline: as §1

NCI-H1734 = test system: NCI-H1734
Outline: as §1

LU99A = test system: LU99A
Outline: as §1

NCI-H2085 = test system: NCI-H2085
Outline: as §1

NCI-H460 = test system: NCI-H460
Outline: as §1

HCC-366 = test system: HCC-366
Outline: as §1

NCI-H441 = test system: NCI-H441
Outline: as §1

NCI-H1437 = test system: NCI-H1437
Outline: as §1

COR-L23 = test system: COR-L23
Outline: as §1

NCI-H1355 = test system: NCI-H1355
Outline: as §1

NCI-H1563 = test system: NCI-H1563
Outline: as §1

NCI-H1651 = test system: NCI-H1651
Outline: as §1

LOU-NH91 = test system: LOU-NH91
Outline: as §1

NCI-H838 = test system: NCI-H838
Outline: as §1

NCI-H2023 = test system: NCI-H2023
Outline: as §1

NCI-H1975 = test system: NCI-H1975
Outline: as §1

BEN = test system: BEN
Outline: as §1

NCI-H358 = test system: NCI-H358
Outline: as §1

SMILES: O=c1cc(N2CCOCC2)oc2c(-c3cccc4c3sc3ccccc34)cccc12 + C[C@]1(O)C[C@@H](c2nc(-c3ccc4ccc(-c5ccccc5)nc4c3)c3c(N)nccn32)C1 [Linsitinib] (partner 1 µM)
- relative viability (SK-LU-1; first compound 0.03162 µM): 1.25
- relative viability (SK-LU-1; first compound 0.1 µM): 1.12
- relative viability (SK-LU-1; first compound 0.3162 µM): 1.19
- relative viability (SK-LU-1; first compound 1 µM): 0.969
- relative viability (NCI-H1793; first compound 0.01 µM): 0.809
- relative viability (NCI-H1793; first compound 0.03162 µM): 0.872
- relative viability (NCI-H1793; first compound 0.1 µM): 0.517
- relative viability (NCI-H1793; first compound 0.3162 µM): 0.813
- relative viability (NCI-H1793; first compound 1 µM): 0.68
- relative viability (CAL-12T; first compound 0.01 µM): 0.851
- relative viability (CAL-12T; first compound 0.03162 µM): 0.809
- relative viability (CAL-12T; first compound 0.1 µM): 0.842
- relative viability (CAL-12T; first compound 0.3162 µM): 0.873
- relative viability (CAL-12T; first compound 1 µM): 0.879
- relative viability (NCI-H1734; first compound 0.01 µM): 0.963
- relative viability (NCI-H1734; first compound 0.03162 µM): 1.03
- relative viability (NCI-H1734; first compound 0.1 µM): 0.906
- relative viability (NCI-H1734; first compound 0.3162 µM): 0.843
- relative viability (NCI-H1734; first compound 1 µM): 0.89
- relative viability (LU99A; first compound 0.01 µM): 0.524
- relative viability (LU99A; first compound 0.03162 µM): 0.628
- relative viability (LU99A; first compound 0.1 µM): 0.589
- relative viability (LU99A; first compound 0.3162 µM): 0.518
- relative viability (LU99A; first compound 1 µM): 0.627
- relative viability (NCI-H2085; first compound 0.01 µM): 0.983
- relative viability (NCI-H2085; first compound 0.03162 µM): 0.914
- relative viability (NCI-H2085; first compound 0.1 µM): 0.933
- relative viability (NCI-H2085; first compound 0.3162 µM): 0.889
- relative viability (NCI-H2085; first compound 1 µM): 0.821
- relative viability (NCI-H460; first compound 0.01 µM): 0.764
- relative viability (NCI-H460; first compound 0.03162 µM): 0.708
- relative viability (NCI-H460; first compound 0.1 µM): 0.739
- relative viability (NCI-H460; first compound 0.3162 µM): 0.822
- relative viability (NCI-H460; first compound 1 µM): 0.78
- relative viability (HCC-366; first compound 0.01 µM): 0.671
- relative viability (HCC-366; first compound 0.03162 µM): 0.656
- relative viability (HCC-366; first compound 0.1 µM): 0.797
- relative viability (HCC-366; first compound 0.3162 µM): 0.662
- relative viability (HCC-366; first compound 1 µM): 0.625
- relative viability (NCI-H441; first compound 0.01 µM): 0.53
- relative viability (NCI-H441; first compound 0.03162 µM): 0.518
- relative viability (NCI-H441; first compound 0.1 µM): 0.582
- relative viability (NCI-H441; first compound 0.3162 µM): 0.555
- relative viability (NCI-H441; first compound 1 µM): 0.594
- relative viability (NCI-H1437; first compound 0.01 µM): 1.01
- relative viability (NCI-H1437; first compound 0.03162 µM): 1.11
- relative viability (NCI-H1437; first compound 0.1 µM): 1.09
- relative viability (NCI-H1437; first compound 0.3162 µM): 1
- relative viability (NCI-H1437; first compound 1 µM): 0.979
- relative viability (COR-L23; first compound 0.01 µM): 0.891
- relative viability (COR-L23; first compound 0.03162 µM): 0.877
- relative viability (COR-L23; first compound 0.1 µM): 1
- relative viability (COR-L23; first compound 0.3162 µM): 0.923
- relative viability (COR-L23; first compound 1 µM): 0.882
- relative viability (NCI-H1355; first compound 0.01 µM): 0.772
- relative viability (NCI-H1355; first compound 0.03162 µM): 0.895
- relative viability (NCI-H1355; first compound 0.3162 µM): 0.819
- relative viability (NCI-H1355; first compound 1 µM): 0.849
- relative viability (NCI-H1563; first compound 0.01 µM): 1.18
- relative viability (NCI-H1563; first compound 0.03162 µM): 1.21
- relative viability (NCI-H1563; first compound 0.1 µM): 1.19
- relative viability (NCI-H1563; first compound 0.3162 µM): 1.14
- relative viability (NCI-H1563; first compound 1 µM): 1
- relative viability (NCI-H1651; first compound 0.01 µM): 1.1
- relative viability (NCI-H1651; first compound 0.03162 µM): 1.07
- relative viability (NCI-H1651; first compound 0.1 µM): 1.02
- relative viability (NCI-H1651; first compound 0.3162 µM): 1.05
- relative viability (NCI-H1651; first compound 1 µM): 0.912
- relative viability (LOU-NH91; first compound 0.01 µM): 0.857
- relative viability (LOU-NH91; first compound 0.03162 µM): 0.937
- relative viability (LOU-NH91; first compound 0.1 µM): 0.938
- relative viability (LOU-NH91; first compound 0.3162 µM): 1.03
- relative viability (LOU-NH91; first compound 1 µM): 0.936
- relative viability (NCI-H838; first compound 0.01 µM): 1.05
- relative viability (NCI-H838; first compound 0.03162 µM): 1.03
- relative viability (NCI-H838; first compound 0.1 µM): 0.951
- relative viability (NCI-H838; first compound 0.3162 µM): 0.931
- relative viability (NCI-H838; first compound 1 µM): 0.916
- relative viability (NCI-H2023; first compound 0.01 µM): 0.735
- relative viability (NCI-H2023; first compound 0.03162 µM): 0.66
- relative viability (NCI-H2023; first compound 0.1 µM): 0.603
- relative viability (NCI-H2023; first compound 0.3162 µM): 0.564
- relative viability (NCI-H2023; first compound 1 µM): 0.557
- relative viability (NCI-H1975; first compound 0.01 µM): 0.833
- relative viability (NCI-H1975; first compound 0.03162 µM): 0.922
- relative viability (NCI-H1975; first compound 0.1 µM): 0.94
- relative viability (NCI-H1975; first compound 0.3162 µM): 0.929
- relative viability (NCI-H1975; first compound 1 µM): 1
- relative viability (BEN; first compound 0.01 µM): 0.887
- relative viability (BEN; first compound 0.03162 µM): 0.916
- relative viability (BEN; first compound 0.1 µM): 0.978
- relative viability (BEN; first compound 0.3162 µM): 1.02
- relative viability (BEN; first compound 1 µM): 0.948
- relative viability (NCI-H358; first compound 0.01 µM): 0.631
- relative viability (NCI-H358; first compound 0.03162 µM): 0.781
- relative viability (NCI-H358; first compound 0.1 µM): 0.731
- relative viability (NCI-H358; first compound 0.3162 µM): 0.812
- relative viability (NCI-H358; first compound 1 µM): 0.736
